Measured values as given in US20260158011A1 (Achieve Life Sciences, Inc., priority 2023, published 2026).
Marks after values point to notes of the source that are not given here.

Test system: adult e-cigarette users
Source text: A second measurement consisted of biochemically verified continuous vaping abstinence at any time during treatment, with vaping abstinence at Week 3-6 or Week 6-9 for of cytisinicline treatment vs placebo. 7-day point prevalence rates were compared for vaping abstinence (Week 2 to 12) (FIG. 62). An additional measurement included reduction in daily vaping as measured by cotinine, where cytisinicline treatment vs placebo for a reduction in nicotine vaping using weekly quantitative cotinine levels from Week 2 to Week 12. Safety was assessed by adverse effects and serious adverse effects, considering number, severity, and attribution to study drug.

[1] = by Preferred Term table, 12 Weeks, N = 106, Safety Set
[2] = overall summary, 12 Weeks, N = 106, Safety Set
[3] = possibly, probably or definitely related, 12 Weeks, N = 106, Safety Set

O=c1cccc2n1C[C@@H]1CNC[C@H]2C1 [cytisine, (−)-Cytisine]
TEAE Migraine, subjects n (12 Weeks, N = 106, Safety Set): 1 n
TEAE Musculoskeletal chest pain, subjects % (12 Weeks, N = 106, Safety Set): (0.9) %
TEAE Musculoskeletal chest pain, subjects n (12 Weeks, N = 106, Safety Set): 1 n
TEAE Nasal congestion, subjects (12 Weeks, N = 106, Safety Set): 0 n (%)
TEAE Nasopharyngitis, subjects (12 Weeks, N = 106, Safety Set): 0 n (%)
TEAE Nausea, subjects % (12 Weeks, N = 106, Safety Set): (4.7) %
TEAE Nausea, subjects n (12 Weeks, N = 106, Safety Set): 5 n
TEAE Neck pain, subjects % (12 Weeks, N = 106, Safety Set): (1.9) %
TEAE Neck pain, subjects n (12 Weeks, N = 106, Safety Set): 2 n
TEAE Oropharyngeal pain, subjects % (12 Weeks, N = 106, Safety Set): (1.9) %
TEAE Oropharyngeal pain, subjects n (12 Weeks, N = 106, Safety Set): 2 n
TEAE Otitis media, subjects (12 Weeks, N = 106, Safety Set): 0 n (%)
TEAE Outcome Fatal (12 Weeks, N = 106, Safety Set): 0 n (%)/Events
TEAE Outcome Not recovered/Not resolved, Events (12 Weeks, N = 106, Safety Set): 23 Events
TEAE Outcome Not recovered/Not resolved, subjects (12 Weeks, N = 106, Safety Set): 14 (13.2) n (%)
TEAE Outcome Recovered/Resolved with sequelae (12 Weeks, N = 106, Safety Set): 0 n (%)/Events
TEAE Outcome Recovered/Resolved, Events (12 Weeks, N = 106, Safety Set): 93 Events
TEAE Outcome Recovered/Resolved, subjects (12 Weeks, N = 106, Safety Set): 47 (44.3) n (%)
TEAE Outcome Recovering/Resolving, Events (12 Weeks, N = 106, Safety Set): 3 Events
TEAE Outcome Recovering/Resolving, subjects (12 Weeks, N = 106, Safety Set): 3 (2.8) n (%)
TEAE Pain in jaw, subjects (12 Weeks, N = 106, Safety Set): 0 n (%)
TEAE Panic attack, subjects % (12 Weeks, N = 106, Safety Set): (1.9) %
TEAE Panic attack, subjects n (12 Weeks, N = 106, Safety Set): 2 n
TEAE Pelvic pain, subjects % (12 Weeks, N = 106, Safety Set): (0.9) %
TEAE Pelvic pain, subjects n (12 Weeks, N = 106, Safety Set): 1 n
TEAE Post viral fatigue syndrome, subjects (12 Weeks, N = 106, Safety Set): 0 n (%)
TEAE Pregnancy, subjects (12 Weeks, N = 106, Safety Set): 0 n (%)
TEAE Procedural anxiety, subjects % (12 Weeks, N = 106, Safety Set): (0.9) %
TEAE Procedural anxiety, subjects n (12 Weeks, N = 106, Safety Set): 1 n
TEAE Pyrexia, subjects (12 Weeks, N = 106, Safety Set): 0 n (%)
TEAE Relationship Definite, Events (12 Weeks, N = 106, Safety Set): 3 Events
TEAE Relationship Definite, subjects (12 Weeks, N = 106, Safety Set): 3 (2.8) n (%)
TEAE Relationship Not Related (first line, total of Not Related and Unlikely), Events (12 Weeks, N = 106, Safety Set): 65 Events
TEAE Relationship Not Related (first line, total of Not Related and Unlikely), subjects (12 Weeks, N = 106, Safety Set): 38 (35.8) n (%)
TEAE Relationship Not Related (second line, sub-category), Events (12 Weeks, N = 106, Safety Set): 55 Events
TEAE Relationship Not Related (second line, sub-category), subjects (12 Weeks, N = 106, Safety Set): 32 (30.2) n (%)
TEAE Relationship Possible, Events (12 Weeks, N = 106, Safety Set): 29 Events
TEAE Relationship Possible, subjects (12 Weeks, N = 106, Safety Set): 17 (16.0) n (%)
TEAE Relationship Probable, Events (12 Weeks, N = 106, Safety Set): 22 Events
TEAE Relationship Probable, subjects (12 Weeks, N = 106, Safety Set): 16 (15.1) n (%)
TEAE Relationship Unlikely, Events (12 Weeks, N = 106, Safety Set): 10 Events
TEAE Relationship Unlikely, subjects (12 Weeks, N = 106, Safety Set): 9 (8.5) n (%)
TEAE Restless legs syndrome, subjects % (12 Weeks, N = 106, Safety Set): (0.9) %
TEAE Restless legs syndrome, subjects n (12 Weeks, N = 106, Safety Set): 1 n
TEAE Sensitive skin, subjects % (12 Weeks, N = 106, Safety Set): (0.9) %
TEAE Sensitive skin, subjects n (12 Weeks, N = 106, Safety Set): 1 n
TEAE Severity Mild, Events (12 Weeks, N = 106, Safety Set): 92 Events
TEAE Severity Mild, subjects (12 Weeks, N = 106, Safety Set): 50 (47.2) n (%)
TEAE Severity Moderate, Events (12 Weeks, N = 106, Safety Set): 26 Events
TEAE Severity Moderate, subjects (12 Weeks, N = 106, Safety Set): 16 (15.1) n (%)
TEAE Severity Severe, Events (12 Weeks, N = 106, Safety Set): 1 Events
TEAE Severity Severe, subjects (12 Weeks, N = 106, Safety Set): 1 (0.9) n (%)
TEAE Sinus congestion, subjects % (12 Weeks, N = 106, Safety Set): (0.9) %
TEAE Sinus congestion, subjects n (12 Weeks, N = 106, Safety Set): 1 n
TEAE Sinusitis, subjects (12 Weeks, N = 106, Safety Set): 0 n (%)
TEAE Stress, subjects % (12 Weeks, N = 106, Safety Set): (0.9) %
TEAE Stress, subjects n (12 Weeks, N = 106, Safety Set): 1 n
TEAE Thirst, subjects % (12 Weeks, N = 106, Safety Set): (0.9) %
TEAE Thirst, subjects n (12 Weeks, N = 106, Safety Set): 1 n
TEAE Tooth extraction, subjects (12 Weeks, N = 106, Safety Set): 0 n (%)
TEAE Trismus, subjects (12 Weeks, N = 106, Safety Set): 0 n (%)
TEAE Upper respiratory tract infection, subjects % (12 Weeks, N = 106, Safety Set): (5.7) %
TEAE Upper respiratory tract infection, subjects n (12 Weeks, N = 106, Safety Set): 6 n
TEAE Urinary tract infection, subjects % (12 Weeks, N = 106, Safety Set): (0.9) %
TEAE Urinary tract infection, subjects n (12 Weeks, N = 106, Safety Set): 1 n
TEAE Vasectomy, subjects % (12 Weeks, N = 106, Safety Set): (0.9) %
TEAE Vasectomy, subjects n (12 Weeks, N = 106, Safety Set): 1 n
TEAE Vomiting, subjects % (12 Weeks, N = 106, Safety Set): (0.9) %
TEAE Vomiting, subjects n (12 Weeks, N = 106, Safety Set): 1 n
TEAE Wisdom teeth removal, subjects % (12 Weeks, N = 106, Safety Set): (0.9) %
TEAE Wisdom teeth removal, subjects n (12 Weeks, N = 106, Safety Set): 1 n
Adverse event Abnormal dreams, % (Cytisinicline 12 wks (N = 106)): 12.3%
Adverse event Anxiety, % (Cytisinicline 12 wks (N = 106)): 9.4%
Adverse event Fatigue, % (Cytisinicline 12 wks (N = 106)): 5.7%
Adverse event Headache, % (Cytisinicline 12 wks (N = 106)): 6.6%
Adverse event Insomnia, % (Cytisinicline 12 wks (N = 106)): 10.4%
Adverse event Nausea, % (Cytisinicline 12 wks (N = 106)): 4.7%
Adverse event Upper respiratory tract infection, % (Cytisinicline 12 wks (N = 106)): 5.7%
At Least One TEAE (Cytisinicline 12 wks (N = 106)): 54 (50.9) n (%)
Subjects with At Least One TEAE, % (Cytisinicline 12 wks (N = 106)): 50.9%
TEAE relationship: Not Related (Cytisinicline 12 wks (N = 106)): 39 (35.8) n (%)
TEAE relationship: Related (Cytisinicline 12 wks (N = 106)): 30 (28.3) n (%)
Treatment-emergent adverse events: Mild (Cytisinicline 12 wks (N = 106)): 50 (47.2) n (%)
Treatment-emergent adverse events: Moderate (Cytisinicline 12 wks (N = 106)): 16 (15.1) n (%)
Treatment-emergent adverse events: Severe (Cytisinicline 12 wks (N = 106), abnormal dreams): 1 (0.9)* n (%)
At Least One TEAE, subjects % [1]: (50.9) %
At Least One TEAE, subjects n [1]: 54 n
Rate of adverse events (cytisinicline arm, 12 weeks): 50.9%
Adverse event COVID-19, % (human, in vivo): 3 (2.8) %
TEAE COVID-19, subjects % (human, in vivo): (2.8) %
TEAE COVID-19, subjects n (human, in vivo): 3 n
TEAE Influenza, subjects % (human, in vivo): (1.9) %
TEAE Influenza, subjects n (human, in vivo): 2 n
At Least One TEAE, Events [2]: 119 Events
At Least One TEAE, subjects [2]: 54 (50.9) n (%)
TEAE Relationship Related, Events [3]: 54 Events
TEAE Relationship Related, subjects [3]: 30 (28.3) n (%)
